The values that follow come from paper PMC10560666, “Four new triterpene saponins from Cephalaria speciosa and their potent cytotoxic and immunomodulatory activities” (Scientific Reports, 2023).

pIC50: −log10 of the molar value. Marks after values point to notes of the source that are not given here.

The subject of assay [1] is THP-1 originated-macrophage. As to the kind of experiment: MTT cytotoxicity on THP-1 originated macrophages. Conditions: mean ± standard deviation, n = 3, – = Not detected; for pIC50: Homo sapiens, THP-1, 48 h. The class given is cell-based, human.
The subject of assay [2] is CCD-34Lu normal human lung fibroblast cells. The assay is described as follows: MTT cytotoxicity on CCD-34Lu healthy cells. The class given is cell-based. Particulars: Homo sapiens, Fibroblast, 48 h, mean ± standard deviation, n = 3, – = Not detected. As for the experimental part: (§1) The human leukemia monocyte cell line (THP-1), human lung adenocarcinoma cell line (A549), human breast cancer cells (MDA-MB231), human prostate adenocarcinoma cells (PC3), human malignant glioma cell line (U87MG), human cervical gland carcinoma cells (HeLa), human hepatocellular carcinoma cells (HEP-G2) and normal human lung fibroblast cells (CCD-34-LU) as a healthy cell line in our stock used in this study were purchased from American Type Culture Collection (ATCC). THP-1 cells were cultured in Roswell Park Memorial Institute (RPMI 1640) medium and MDA-MB231, PC3, U87 MG, HeLa, HEP-G2, and CCD-34-LU cells cultivated in Dulbecco’s Modified Eagle’s Medium/Nutrient Mixture F-12 (DMEM/F12) (Gibco, USA) medium supplemented with 10% FBS (Gibco, USA), 100U/mL of penicillin 100 µg/mL of streptomycin (Gibco, USA), and 2 mM L-glutamine (Gibco, USA).
(§2) Cytotoxicity of saponins (1–4) and their prosapogenins (2a–4a) were tested against A549, MDA-MB-231, PC-3, U87MG, HeLa, HepG-2 cancer cells and CCD34-Lu healthy cell line using MTT [3-(4,5-dimethylthiazole-2-yl)-2,5-diphenyltetrazolium bromide)] assay (Acros Organics, New Jersey, USA)[11], [23]. For this purpose, 1 × 10^5 cells/mL of all the cell lines were seeded in 96-well plates (Corning, USA) and cultivated in the at 37 °C overnight. After the incubation, the cells were incubated with different concentrations of saponins (50, 5, and 0.5 µg/mL), and doxorubicin (Sigma, USA) (20, 2, and 0.2 µg/mL) for 48 h at 37 °C. Then, the MTT was added as 20 μL (from the stock concentration of 2.5 mg/mL) to all wells and further incubated for 4 h at 37 °C. Following the incubation, the medium was removed and 150 µL DMSO was added to dissolve the formed formazan crystals. After the formazan crystals were completely dissolved, the optical density (OD) was measured at 570 nm with an UV/Vis microplate spectrophotometer (Thermo Fisher Scientific, USA). All data are the results of at least three independent experiments carried out in triplicate. Data are presented as mean ± standard error of the mean (SEM) of samples. The IC50 value was calculated using the GraphPad Prism 8 (USA) program based on the calculated percent viability values and absorbance values. The percentage of viability was determined by Eq. (1):1 %Viablecells=absorbanceoftreatedcells-absorbanceofblank/absorbanceofcontrol-absorbanceofblank×100

Assay [3] deals with A549 human lung adenocarcinoma cell line. As to the kind of experiment: MTT cytotoxicity on A549. The assay is classed as cell-based. Conditions: Homo sapiens, A549, 48 h, mean ± standard deviation, n = 3, – = Not detected. As for the experimental part:
as §1, §2

The test system of assay [4] is MDA-MB-231 human breast cancer cells. The assay is described as follows: MTT cytotoxicity on MDA-MB-231. The class given is cell-based. Particulars: Homo sapiens, MDA-MB-231, 48 h, mean ± standard deviation, n = 3, – = Not detected. As for the experimental part: as §1, §2
For assay [5], the system named is PC-3 human prostate adenocarcinoma cells. The assay is described as follows: MTT cytotoxicity on PC-3. The assay is classed as cell-based. Conditions: Homo sapiens, 48 h, mean ± standard deviation, n = 3, – = Not detected. How it is done: as §1, §2
Assay [6] relates to U87MG human malignant glioma cell line. As to the kind of experiment: MTT cytotoxicity on U87MG. Conditions: Homo sapiens, U-87 MG, 48 h, mean ± standard deviation, n = 3, – = Not detected. The class given is cell-based. As for the experimental part:
as §1, §2

The test system of assay [7] is HeLa human cervical gland carcinoma cells. As to the kind of experiment: MTT cytotoxicity on HeLa. Conditions: Homo sapiens, HeLa, 48 h, mean ± standard deviation, n = 3, – = Not detected. The class given is cell-based. How it is done: as §1, §2
In assay [8] the test system is HepG-2 human hepatocellular carcinoma cells. As to the kind of experiment: MTT cytotoxicity on HepG-2. Conditions: Homo sapiens, HepG2, 48 h, mean ± standard deviation, n = 3, – = Not detected. The class given is cell-based. How it is done: as §1, §2
Assay [9] has as its system THP-1 derived macrophage cells. The assay is described as follows: Macrophage polarization by flow cytometry (CD11b, CD80, CD163 MFI). The class given is cell-based, human. Particulars: saponin 3 µg/mL, 24 h, PMA-differentiated THP-1, mean ± SD, n = 3. As for the experimental part: To differentiate THP-1 cells into M0-THP-1, cells were seeded at an initial concentration of 1 × 10^6 cells/mL in 6-well plates (Corning, USA) and treated with 15 ng/mL phorbol 12-myristate 13—acetate (PMA, Sigma USA). Then incubate at 5% CO2, 37 °C for 48 h[24]. To evaluate the potential of saponins with/without infectious bronchitis virus (IBV) D274 antigen on macrophage polarization, THP-1 cells were treated with saponins at 3 µg/mL and then incubated for 24 h with or without 4 µL of inactivated IBV D274 antigens (final titer of 1 HA). […] Based on the results of our previous research, the saponin concentration was selected as a non-cytotoxic concentration. At the end of the incubation period, the cells were collected by trypsinization and washed three times with PBS. Following, 1 µL of PE anti-human CD80 (Biolegend, CA), FITC anti-human CD163 (Biolegend, CA), and FITC anti-human CD11b (Biolegend, CA) antibodies were added into the cells pellet and incubated for 45 min at room temperature in the dark. The cells pellets underwent two PBS washes following incubation. Finally, the cells were subsequently analyzed by flow cytometry (BD Accuri, C5). 1 × 10^4 cells were counted for each sample group using flow cytometry. All data are the results of at least three independent experiments carried out in triplicate. Data are presented as mean ± standard error of the mean (SEM) of samples. The untreated stained macrophage cells with anti-human CD80, FITC anti-human CD163, and FITC anti-human CD11b were compared with the results of treated cells to obtain from M0 polarization to M1 and M2 or both.
Figure 2 (a) Saponins without antigen treatment, (b) Saponins treated with antigen. THP-1 cells were treated with 15 ng/ml PMA and 3 µg/ml saponins and 1 HA titer of IBV D274 induced in the saponins with antigen group for 24 h incubation. The macrophage polarization was determined with flow cytometry. Each value represents the mean ± standard deviation of three independents measurements. (P < 0.05*, P < 0.01**, P < 0.001***).

The mark [10] stands for this setting: with inactivated IBV D274 antigen (1 HA).

Consider `C[C@@H]1O[C@@H](O[C@H]2[C@H](O[C@H]3CC[C@@]4(C)C(CC[C@]5(C)C4CC=C4C6CC(C)(C)CC[C@]6(C(=O)O[C@@H]6O[C@H](CO[C@@H]7O[C@H](CO)[C@@H](O)[C@H](O)[C@H]7O)[C@@H](O)[C@H](O)[C@H]6O)CC[C@]45C)C3(C)C)O[C@H](CO)[C@H](O)[C@@H]2O)[C@H](O)[C@H](O)[C@H]1O` (stereo partly drawn) [Compound 2, 3-O-α-L-rhamnopyranosyl-(1 → 2)-β-D-galactopyranosyl-oleanoic acid-28-O-β-D-glucopyranosyl-(1 → 6)-β-D-glucopyranosyl ester], for which the pIC50 in assay [1], in assay [2], in assay [3], in assay [4], in assay [5] and in assay [6] was below 4.34 each time. Besides, the pIC50 in assay [7] and in [8] was below 4.34 in each case. Also, the entries for the “MFI of CD 11b (M0 marker)” value in assay [9] (setting [10]) and in assay [9] (without antigen) were 33,053.20 ± 951.60 and 29,875.39 ± 3311.75, respectively. Moreover, the “MFI of CD80 (M1 marker)” value is reported as 4516.00 ± 223.23 in assay [9] (setting [10]) and 3,629.71 ± 142.80 in assay [9] (without antigen). Moreover, the “MFI of CD163 (M2 marker)” value in assay [9] (setting [10]) is given as 7441.00 ± 423.23; in assay [9] (without antigen), 6,206.45 ± 185.19.

Turning to `C[C@@H]1O[C@@H](O[C@H]2[C@H](O[C@H]3CC[C@@]4(C)C(CC[C@]5(C)C4CC=C4C6CC(C)(C)CC[C@]6(C(=O)O)CC[C@]45C)[C@]3(C)CO)OC[C@@H](O)[C@@H]2O)[C@H](O)[C@H](O)[C@H]1O` (stereo partly drawn) [Compound 3a, 3-O-α-L-rhamopyranosyl-(1 → 2)-β-D-xylopyranosyl hederagenin], the “IC50, THP-1 originated-macrophage” value in [1] (48 h) is “did not have a cytotoxic effect”. The pIC50 in assay [1], in assay [2], in [3], in assay [4], in assay [5] and in [6] was below 4.18 in each case. Moreover, the pIC50 in assay [7] and in assay [8] was below 4.18 throughout. Moreover, the results for the “MFI of CD 11b (M0 marker)” value in [9] (setting [10]) and in assay [9] (without antigen) were 29,092.45 ± 852.78 and 29,092.75 ± 2580.19, respectively. The “MFI of CD80 (M1 marker)” value in [9] (setting [10]) is 4911.00 ± 224.16; in assay [9] (without antigen), 4,248.00 ± 137.13. Also, the “MFI of CD163 (M2 marker)” value in assay [9] (without antigen) was 6,408.00 ± 195.24*.

The term pIC50 denotes the IC50 on a negative log10 scale, so that one unit is a factor of ten. Lower therefore signals a high IC50.
